{"source": "patent US20260297131A1", "about": "“COMPOSITIONS AND METHODS FOR PEPTIDE-BASED MODULATORS OF HUMAN PAPILLOMAVIRUS ONCOPROTEIN E6” (priority 2023, published 2026)", "target": "MBP-16E6 (Human papillomavirus 16, UniProt P03126, C104S/C118S/C147S/C87S)", "sequence (P03126 whole entry C104S/C118S/C147S/C87S, looked up)": "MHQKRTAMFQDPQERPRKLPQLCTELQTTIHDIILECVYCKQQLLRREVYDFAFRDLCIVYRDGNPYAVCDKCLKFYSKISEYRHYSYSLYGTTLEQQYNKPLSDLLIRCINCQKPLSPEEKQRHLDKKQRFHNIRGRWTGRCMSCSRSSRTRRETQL", "test": "biochemical", "key": {"[1]": {"conditions": "KD, nM, TABLE 2B, BLI competition"}}, "note": "“And” between values parts separate entries of the source, which are not always exact repeats. Equal entries are not always repeated. Square brackets hold non-standard residues; d marks the D form. Peptide text beside a SMILES is read from it. * marks the point of attachment. Acetyl(9-fluorenyl) = O=C(CC1c2ccccc2-c2ccccc21)*; Anthracene1carbonyl = O=C(c1cccc2cc3ccccc3cc12)*; 1Naphthoyl = O=C(c1cccc2ccccc12)*; Hyp = O=C(O)[C@@H]1C[C@@H](O)CN1; Aad = N[C@@H](CCCC(=O)O)C(=O)O; Cba = N[C@@H](CC1CCC1)C(=O)O; Nva = CCC[C@H](N)C(=O)O; Dha = C=C(N)C(=O)O", "data": [{"smiles": "CC[C@H](C)[C@H](NC(=O)CC1c2ccccc2-c2ccccc21)C(=O)N1CCC[C@H]1C(=O)N[C@@H](CCC(=O)O)C(=O)N[C@@H](CO)C(=O)N[C@@H](CO)C(=O)N[C@@H](CCC(=O)O)C(=O)N[C@@H](CC(C)C)C(=O)N[C@H](C(=O)N[C@@H](CC(C)C)C(=O)N[C@@H](CCC(N)=O)C(=O)N[C@@H](CCC(=O)O)C(=O)N[C@@H](CC(C)C)C(=O)N[C@@H](CC(C)C)C(=O)NCC(=O)N[C@@H](CCC(=O)O)C(=O)N[C@@H](CCC(=O)O)C(=O)N[C@@H](CCCNC(=N)N)C(=O)N[C@@H](CCCNC(=N)N)C(=O)N[C@@H](C)C(=O)N[C@@H](C)C(=O)N[C@@H](CCCCNC(=O)CC1c2ccccc2-c2ccccc21)C(N)=O)[C@@H](C)O", "note": "[Entry 2] ({Acetyl(9-fluorenyl)}-IPESSELTLQELLGEERRAAK(Acetyl(9-fluorenyl))-NH2)", "values": [{"measurement": "Kd", "setting": "[1]", "result": "8.6 ± 3.2", "unit": "nM"}]}, {"smiles": "CC[C@H](C)[C@H](NC(=O)CC1c2ccccc2-c2ccccc21)C(=O)N1CCC[C@H]1C(=O)N[C@@H](CCC(=O)O)C(=O)N[C@@H](CO)C(=O)N[C@@H](CO)C(=O)N[C@@H](CCC(=O)O)C(=O)N[C@@H](CC(C)C)C(=O)N[C@H](C(=O)N[C@@H](CC(C)C)C(=O)N[C@@H](CCC(N)=O)C(=O)N[C@@H](CCC(=O)O)C(=O)N[C@@H](CC(C)C)C(=O)N[C@@H](CC(C)C)C(=O)NCC(=O)N[C@@H](CCC(=O)O)C(=O)N[C@@H](CCC(=O)O)C(=O)N[C@@H](CCCNC(=N)N)C(=O)N[C@@H](CCCNC(=N)N)C(=O)N[C@@H](C)C(=O)N[C@@H](C)C(=O)N[C@@H](CCCCNC(=O)c1cccc2ccccc12)C(N)=O)[C@@H](C)O", "note": "[Entry 4] ({Acetyl(9-fluorenyl)}-IPESSELTLQELLGEERRAAK(1Naphthoyl)-NH2)", "values": [{"measurement": "Kd", "setting": "[1]", "result": "47 ± 7.4", "unit": "nM"}]}, {"smiles": "CC[C@H](C)[C@H](NC(=O)CC1c2ccccc2-c2ccccc21)C(=O)N1CCC[C@H]1C(=O)N[C@@H](CCC(=O)O)C(=O)N[C@@H](CO)C(=O)N[C@@H](CO)C(=O)N[C@@H](CCC(=O)O)C(=O)N[C@@H](CC(C)C)C(=O)N[C@H](C(=O)N[C@@H](CC(C)C)C(=O)N[C@@H](CCC(N)=O)C(=O)N[C@@H](CCC(=O)O)C(=O)N[C@@H](CC(C)C)C(=O)N[C@@H](CC(C)C)C(=O)NCC(=O)N[C@@H](CCC(=O)O)C(=O)N[C@@H](CCC(=O)O)C(=O)N[C@@H](CCCNC(=N)N)C(=O)N[C@@H](CCCNC(=N)N)C(=O)N[C@@H](C)C(=O)N[C@@H](C)C(=O)N[C@@H](CCCCNC(=O)c1cccc2cc3ccccc3cc12)C(N)=O)[C@@H](C)O", "note": "[Entry 6] ({Acetyl(9-fluorenyl)}-IPESSELTLQELLGEERRAAK(Anthracene1carbonyl)-NH2)", "values": [{"measurement": "Kd", "setting": "[1]", "result": "3.7 ± 1.9", "unit": "nM"}]}, {"smiles": "CC[C@H](C)[C@H](N)C(=O)N1CCC[C@H]1C(=O)N[C@@H](CCC(=O)O)C(=O)N[C@@H](CO)C(=O)N[C@@H](CO)C(=O)N[C@@H](CCC(=O)O)C(=O)N[C@@H](CC(C)C)C(=O)N[C@H](C(=O)N[C@@H](CC(C)C)C(=O)N[C@@H](CCC(N)=O)C(=O)N[C@@H](CCC(=O)O)C(=O)N[C@@H](CC(C)C)C(=O)N[C@@H](CC(C)C)C(=O)NCC(=O)N[C@@H](CCC(=O)O)C(=O)N[C@@H](CCC(=O)O)C(=O)N[C@@H](CCCNC(=N)N)C(=O)N[C@@H](CCCNC(=N)N)C(N)=O)[C@@H](C)O", "note": "[Peptide 1]", "values": [{"measurement": "Kd", "setting": "[1]", "result": "2450 ± 513", "unit": "nM"}, {"measurement": "Kd", "setting": "competition KD, BLI competition with 1-biotin, 30 nM MBP-16E6", "result": "2300 nM and 2400 nM"}]}, {"smiles": "C=C(NC(=O)[C@H](CCC)NC(=O)[C@H](CC1CCC1)NC(=O)[C@H](CCC(=O)O)NC(=O)CNC(=O)[C@H](CCC)NC(=O)[C@@H]1C[C@@H](O)CN1C(=O)[C@H](CCC)NC(=O)[C@@H](N)CCCC(=O)O)C(=O)N[C@@H](CCC(=O)O)C(=O)N[C@@H](CCC(=O)O)C(=O)N[C@@H](CCCNC(=N)N)C(N)=O", "note": "[peptide 3] (H-[Aad][Nva][Hyp][Nva]GE[Cba][Nva][Dha]EER-NH2)", "values": [{"measurement": "Ki", "result": 466, "unit": "nM"}]}]}
